In PubChem BioAssay AID2060498 (Molecular Pharmacology Branch, DTP, NCI, 2025):

Tested on: 171881-019-R-J1-PDC tumor spheroids, viability
Assay: Anticancer human tumor 171881-019-R-J1-PDC patient-derived invasive breast carcinoma cell line growth inhibition [GQUAD]
Details: spheroids with HUVEC and MSC; for IC50: curve of first compound; for viability, T/C: stronger effect = lower value
In short: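 Viability of tumor cells grown as complex spheroids with endothelial and stromal cells, exposed to drug combinations. Top concentration at or near clinical Cmax (else 10 microM), diluted in half-log increments.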

[1] = second compound 0.0316 µM, first compound 0.0316 µM
[2] = second compound 0.0316 µM, first compound 0.1 µM
[3] = second compound 0.0316 µM, first compound 0.316 µM
[4] = second compound 0.0316 µM, first compound 1 µM
[5] = second compound 0.0316 µM, first compound 3.16 µM
[6] = second compound 0.0316 µM, first compound 10 µM
[7] = second compound 0.1 µM, first compound 0.0316 µM
[8] = second compound 0.1 µM, first compound 0.1 µM
[9] = second compound 0.1 µM, first compound 0.316 µM
[10] = second compound 0.1 µM, first compound 1 µM
[11] = second compound 0.1 µM, first compound 3.16 µM
[12] = second compound 0.1 µM, first compound 10 µM
[13] = second compound 0.316 µM, first compound 0.0316 µM
[14] = second compound 0.316 µM, first compound 0.1 µM
[15] = second compound 0.316 µM, first compound 0.316 µM
[16] = second compound 0.316 µM, first compound 1 µM
[17] = second compound 0.316 µM, first compound 3.16 µM
[18] = second compound 0.316 µM, first compound 10 µM
[19] = second compound 1 µM, first compound 0.0316 µM
[20] = second compound 1 µM, first compound 0.1 µM
[21] = second compound 1 µM, first compound 0.316 µM
[22] = second compound 1 µM, first compound 1 µM
[23] = second compound 1 µM, first compound 3.16 µM
[24] = second compound 1 µM, first compound 10 µM
[25] = second compound 3.16 µM, first compound 0.0316 µM
[26] = second compound 3.16 µM, first compound 0.1 µM
[27] = second compound 3.16 µM, first compound 0.316 µM
[28] = second compound 3.16 µM, first compound 1 µM
[29] = second compound 3.16 µM, first compound 3.16 µM
[30] = second compound 3.16 µM, first compound 10 µM
[31] = second compound 10 µM, first compound 0.0316 µM
[32] = second compound 10 µM, first compound 0.1 µM
[33] = second compound 10 µM, first compound 0.316 µM
[34] = second compound 10 µM, first compound 1 µM
[35] = second compound 10 µM, first compound 3.16 µM
[36] = second compound 10 µM, first compound 10 µM
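Throughout, for viability, T/C: 100% = DMSO vehicle control viability.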

With CC(C)n1c(=O)n(C)c2cnc3cc(F)c(-c4ccc(OCCCN5CCCCC5)nc4)cc3c21 + Cc1[nH]c2ccc(F)cc2c1-c1nc2c3cccnc3c3ncccc3c2[nH]1 the IC50 (second compound 0.0316 µM) was 3360 nM, the IC50 (second compound 0.1 µM) was 3350 nM and the IC50 (second compound 0.316 µM) was 2420 nM. The IC50 (second compound 1 µM) was 2310 nM, the IC50 (second compound 3.16 µM) was < 31.6 nM and the IC50 (second compound 10 µM) was 362 nM. The viability, T/C [1] was 103%, the viability, T/C [2] was 94.3% and the viability, T/C [3] was 95.4%. The viability, T/C [4] was 84.7%, the viability, T/C [5] was 51.1% and the viability, T/C [6] was 22.8%. The viability, T/C [7] was 97.3%, the viability, T/C [8] was 104% and the viability, T/C [9] was 93.4%. The viability, T/C [10] was 79.8%, the viability, T/C [11] was 51.7% and the viability, T/C [12] was 23.8%. It also gave a viability, T/C [13] of 95.9%, a viability, T/C [14] of 93.2% and a viability, T/C [15] of 64.5%. It also gave a viability, T/C [16] of 67.8%, a viability, T/C [17] of 50% and a viability, T/C [18] of 21.9%. The viability, T/C [19] was 89.7%, the viability, T/C [20] was 75.5% and the viability, T/C [21] was 84.8%. The viability, T/C [22] was 68%, the viability, T/C [23] was 43.2% and the viability, T/C [24] was 26.9%. The viability, T/C [25] was 28.7%, the viability, T/C [26] was 29.2% and the viability, T/C [27] was 23.4%. For the same compound, the viability, T/C [28] was 23.3%, the viability, T/C [29] was 19.1% and the viability, T/C [30] was 12%. The viability, T/C [31] was 65.7%, the viability, T/C [32] was 49.8% and the viability, T/C [33] was 52.4%. The viability, T/C [34] was 43.4%, the viability, T/C [35] was 34.3% and the viability, T/C [36] was 16.5%.
CC1COCCN1c1cc(C2(O)CC3CCC(C2)O3)c2cnn(-c3ccn[nH]3)c2n1 (centres undefined) + Cc1[nH]c2ccc(F)cc2c1-c1nc2c3cccnc3c3ncccc3c2[nH]1 was tested, and the IC50 (second compound 0.0316 µM) was 34.5 nM, the IC50 (second compound 0.1 µM) was 38.1 nM and the IC50 (second compound 0.316 µM) was 33.8 nM. The IC50 (second compound 1 µM) was < 31.6 nM, the IC50 (second compound 3.16 µM) was < 31.6 nM and the IC50 (second compound 10 µM) was < 31.6 nM. The viability, T/C [1] was 52.8%, the viability, T/C [2] was 20.5% and the viability, T/C [3] was 10.3%. It also gave a viability, T/C [4] of 5.52%, a viability, T/C [5] of 4.37% and a viability, T/C [6] of 4.08%. For the same compound, the viability, T/C [7] was 55.6%, the viability, T/C [8] was 20.6% and the viability, T/C [9] was 9.69%. It also gave a viability, T/C [10] of 5.6%, a viability, T/C [11] of 3.81% and a viability, T/C [12] of 3.56%. It also gave a viability, T/C [13] of 52.1%, a viability, T/C [14] of 20.3% and a viability, T/C [15] of 9.82%. It also gave a viability, T/C [16] of 5.18%, a viability, T/C [17] of 4.67% and a viability, T/C [18] of 3.78%. It also gave a viability, T/C [19] of 36.9%, a viability, T/C [20] of 15.5% and a viability, T/C [21] of 9.46%. For the same compound, the viability, T/C [22] was 5.53%, the viability, T/C [23] was 5.14% and the viability, T/C [24] was 3.53%. The viability, T/C [25] was 15.7%, the viability, T/C [26] was 10.5% and the viability, T/C [27] was 6.92%. It also gave a viability, T/C [28] of 4.31%, a viability, T/C [29] of 4.06% and a viability, T/C [30] of 1.96%. For the same compound, the viability, T/C [31] was 14.8%, the viability, T/C [32] was 12.1% and the viability, T/C [33] was 7.38%. For the same compound, the viability, T/C [34] was 5.1%, the viability, T/C [35] was 4.66% and the viability, T/C [36] was 3.28%.
